Measured values taken from patent US8062860B2, “Kit for measuring in vivo mutation frequency at an endogenous gene locus” (Litron Laboratories, Ltd., priority 2006, dated 2011).
Entries after “also recorded” stand apart in the source; their conditions may differ.

Assays:
[1] = test system: pig-a gene; experiment: pig-a mutant erythrocyte frequency measured with and without aerolysin selective lysis, using counting beads (Example 3); format: in vivo, Sprague-Dawley rat; conditions: female rats; ENU 100 mg/kg/day or DMBA 40 mg/kg/day on three days; blood 6 weeks thereafter; vs untreated; FIG. 5
Procedure: Blood samples are obtained and processed (labeling with fluorochromes) as described above. Specimens were subsequently divided to provide pig-a mutant erythrocyte frequency measurements made with and without the use of aerolysin. To each of the samples, a small volume of high density microsphere suspension is added. Preferably, between about 10^3 to about 10^6 microspheres/specimen are added. Suitable microspheres are commercially available from a number of sources, including Becton Dickinson, Molecular Probes, and Polysciences. After mixing each sample to ensure a homogeneous suspension, a small aliquot of each cell/microsphere solution is transferred to a tube containing a balanced salt solution such that the resulting dilution yields a density of beads and cells which is low enough so that the rate of particles passing through the detection device yields accurate measurements (e.g., less than about 7,000 events per second for a Becton Dickinson FACSCalibur; higher densities may lead to excessive coincidence, which is multiple particles simultaneously at the fluid stream-laser beam intersection). The other (undiluted) specimen is treated with aerolysin to lyse the majority of non-mutant erythrocytes and reticulocytes. Reticulocyte:bead ratios are measured for both diluted and undiluted/aerolysin-treated samples using, e.g., an optical detection system of the type described above. From these ratios, it is possible to calculate the frequency of mutant reticulocytes per 10^6 reticulocytes.
For example, a small volume of a bead stock suspension (10 μl) is added to a suspension of high density cells that have been stained for a mutation frequency determination (1 ml). A small fraction of the cell/bead suspension is then transferred to a tube containing an isotonic solution such that the resulting density of beads and cells is low enough to prevent excessive coincidence. Flow cytometric analysis then allows for determination of the reticulocyte to bead ratio; for example 7,500 reticulocytes and 100 beads would indicate a ratio of 75 reticulocytes per bead. The aerolysin-treated specimen (with a majority of non-mutant erythrocytes and reticulocytes lysed due to aerolysin) is subsequently analyzed. Even while the majority of erythrocytes and reticulocytes have been lysed, it is still possible to analyze 10^6 or more “virtual reticulocytes” by setting the stop mode so that the proportionate number of beads (which are unaffected by aerolysin) have been interrogated. In this example, the stop mode would be set so that data accumulate until 10^6 divided by 75 beads have been acquired, i.e., 13,333 beads. In this manner, it is possible to score the number of mutant reticulocytes per 13,333 beads, or in other words, per 10^6 virtual reticulocytes. […]

[2] = test system: pig-a gene; experiment: mutant erythrocytes versus mutant reticulocytes, FSC and FL1 thresholding (Example 5); format: in vivo, rat; conditions: rats, 100 mg ENU/kg/day or 40 mg DMBA/kg/day three times in one week; 4 weeks post-exposure; vs untreated; FIG. 7
Description: In practice, this means the mutation frequency for entire erythrocyte population and a mutation frequency for the reticulocyte fraction can each be efficiently determined by analyzing each stained blood specimen two times: once at high density with FL1 thresholding, and a second time upon dilution using a FSC threshold setting. In this manner it is possible to efficiently interrogate enough cells (e.g. 10^6 reticulocytes and also 10^6 total erythrocytes) for accurate measures of mutant frequency (see FIGS. 4A-B).
For this experiment, rats were untreated, or exposed to 100 mg ENU/kg/day or 40 mg DMBA/kg/day. These exposures were performed three times in one week (M, W, F). Blood was collected from the tail vein of these animals 4 weeks post-exposure. Blood samples were stained according to the present invention. Specifically, high density blood specimens were contacted with anti-CD59-PE to differentially label mutant and non-mutant erythrocytes, and biotinylated anti-CD61 followed by streptavidin-Cy5-PE as a platelet-specific label used to exclude these particles from analysis. After a washing steps to remove unbound antibodies and streptavidin-Cy5-PE, cells were resuspended in a thiazole orange solution (0.1 μg/ml) and allowed to incubate at room temperature for about 30 minutes. Specimens were placed on ice and protected from light until flow cytometric analysis (within about 4 hours). Cells were analyzed at low density with FSC thresholding, and also at high density with FL1 thresholding. As described in Example 2, this provided mutant frequencies in both the total erythrocyte and the reticulocyte populations.

[3] = test system: pig-a gene; experiment: three-color flow cytometric scoring of pig-a mutant (CD59-negative) erythrocytes in blood of treated rats (Example 1); format: in vivo; conditions: rat, 100 mg/kg/day for three days at 48 hr intervals; blood several weeks after final administration; FIG. 3E
Procedure: Whole blood specimens (EDTA as anticoagulant) were obtained from the tail vein of vehicle- or ethyl-N-nitrosourea (ENU) treated rats (100 mg/kg/day for three days at 48 hr intervals; blood collected several weeks after the final administration). […] Thereafter, cells were contacted with anti-CD59-PE to differentially label mutant and non-mutant erythrocytes, and biotinylated anti-CD61 followed by streptavidin-Cy5-PE as a platelet-specific label used to exclude these particles from analysis. After washing steps to remove unbound antibodies and unbound streptavidin-Cy5-PE, cells were resuspended in a thiazole orange solution (0.1 μg/ml). Specimens were incubated at room temperature for about 30 minutes, and thereafter were placed on ice until flow cytometric analysis occurred (within about 4 hours).
As shown by FIGS. 3A-E, the labeling procedure was able to successfully discriminate mature erythrocytes and reticulocytes from other cell types, as well as from platelets. Furthermore, it was capable of providing high fluorescent resolution between CD59-negative and CD59-positive erythrocytes, thus facilitating quantification of mutant erythrocyte frequency.
The flow cytometry data acquisition/analysis software (CellQuest v3.3) allowed for configuring alternative gating strategies.

[4] = test system: pig-a gene; experiment: time course of CD59-negative reticulocyte frequency with FL1 thresholding (Example 4); format: in vivo, Sprague Dawley rat
Description: In this case, it is possible to set the threshold parameter to the nucleic acid dye-associated fluorescence channel (e.g., FL1 for thiazole orange), as opposed to the more common forward scatter trigger. When set sufficiently high (that is, above the fluorescence intensity of mature erythrocytes), this can restrict analysis to reticulocytes.
Rather, it must be coupled with the preparation of very high density specimens. When these two adjustments are made, much quicker data acquisition rates are achieved. For instance, by eliminating mature erythrocytes with an FL1 threshold and analyzing specimens prepared at very high cell densities (for example 3×10^8/ml), it is possible to reduce the time needed to acquire 10^6 reticulocytes from 80 minutes to about 5 to 15 minutes.
The use of serial blood specimens also facilitated an assessment of the influence of blood harvest time. For this experiment, Sprague Dawley rats were treated with either vehicle or […] on three days (M, W, F). Blood was collected from the tail vein of these animals before treatment and over a 5 week post-exposure period. After two washing steps, high density blood samples were stained according to the present invention. […] Cells were analyzed according to the FL1 thresholding technique described in Example 2.

Cc1c2ccccc2c(C)c2c1ccc1ccccc12 [DMBA, 7,12-dimethyl-1,2-benz[a]anthracene]
mutant erythrocyte (CD59-negative) frequency, analysis with aerolysin to enrich for mutants [1]: significant increases
mutant erythrocyte (CD59-negative) frequency, analysis without aerolysin [1]: significant increases
frequency of CD59-negative erythrocytes (total erythrocyte population) [2]: greatly elevated
frequency of CD59-negative reticulocytes [2]: greatly elevated

CCN(N=O)C(N)=O [ENU, ethyl-N-nitrosourea]
frequency of mutant (CD59-negative) erythrocytes [3]: relatively high frequency of mutant erythrocytes
mutant erythrocyte (CD59-negative) frequency, analysis with aerolysin to enrich for mutants [1]: significant increases
mutant erythrocyte (CD59-negative) frequency, analysis without aerolysin [1]: significant increases
CD59- (mutant) reticulocyte frequency ([4]; rats, 100 mg ENU/mg/day on three days, 5 week post-exposure period, three animals, vs vehicle, FIG. 6): greatly elevated; also recorded: markedly elevated
time of maximal mutant reticulocyte frequency ([4]; two of the three ENU-treated animals (E2 and E3), animal E1 continued to rise through week 5): 4 week
frequency of CD59-negative erythrocytes (total erythrocyte population) [2]: greatly elevated
frequency of CD59-negative reticulocytes [2]: greatly elevated
